Values after ≈ are worked out from the molar mass of the structure shown.
What was measured:
Salmonella enterica = assay: Antimicrobial activity against Salmonella enterica ATCC 10708 incubated for 16 to 48 hrs; assay type: functional
Staphylococcus aureus = assay: Antimicrobial activity against Staphylococcus aureus ATCC 6538 incubated for 16 to 48 hrs; assay type: functional
Micrococcus luteus = assay: Antimicrobial activity against Micrococcus luteus NRRL B-287 incubated for 16 to 48 hrs; assay type: functional
Bacillus subtilis = assay: Antimicrobial activity against Bacillus subtilis ATCC 6633 incubated for 16 to 48 hrs; assay type: functional
PC-3 = assay: Cytotoxicity in human PC3 cells assessed as reduction in cell viability incubated for 48 hrs; assay type: functional, cell-based; settings: PC-3, 48 h
A549 = assay: Cytotoxicity in human A549 cells assessed as reduction in cell viability incubated for 48 hrs; assay type: functional, cell-based; settings: A549, 48 h
Mycolicibacterium aurum = assay: Antimicrobial activity against Mycobacterium aurum ATCC 23366 incubated for 16 to 48 hrs; assay type: functional
Ambystoma mexicanum = assay: Toxicity in axolotl at <=10 uM by embryo tail regeneration assay; assay type: organism-based; settings: in vivo
Escherichia coli = assay: Antimicrobial activity against Escherichia coli NRRL B-3708 incubated for 16 to 48 hrs; assay type: functional
Saccharomyces cerevisiae = assay: Antimicrobial activity against Saccharomyces cerevisiae ATCC 204508 incubated for 16 to 48 hrs; assay type: functional

Structure (SMILES)	MIC (Salmonella enterica) [µM]	MIC (Staphylococcus aureus) [µM]	MIC (Micrococcus luteus) [µM]	MIC (Bacillus subtilis) [µM]	IC50 (PC-3) [µM]	IC50 (A549) [µM]	MIC (Mycolicibacterium aurum) [µM]	Activity (Ambystoma mexicanum)	MIC (Escherichia coli) [µM]	MIC (Saccharomyces cerevisiae) [µM]
O=C(O)C1(O)O[C@@H]2[C@@H](Cc3nc4c(O)cccc4nc3[C@@H]2O)[C@H]1c1c[nH]c2ccccc12 (stereo not given in full)	> 120	> 120	> 120	> 120	> 50	> 50	> 120	Non-Toxic	> 120	> 120
O=C(O)C1(O)O[C@@H]2[C@@H](Cc3nc4c(O)cccc4nc3[C@@H]2O)[C@H]1c1ccc(O)cc1 (stereo not given in full)	> 120	> 120	> 120	> 120	> 50	> 50	> 120	Non-Toxic	> 120	> 120
O=C(O)c1ccc(O)c2nc3c4c(ccc3nc12)[C@@H]1Cc2nc3cccc(O)c3nc2[C@H](O4)[C@H]1O	> 120	> 120	> 120	> 120	> 50	> 50	> 120	Non-Toxic	> 120	> 120
O=C(O)c1cccc2nc3c4c(ccc3nc12)[C@H]1c2nc3c(O)cccc3nc2C[C@@H]4[C@H]1O	> 120	> 120	> 120	> 120	> 50	> 50	> 120	Non-Toxic	> 120	> 120
O=C(O)c1cc2c(c3nc4cccc(O)c4nc13)[C@@H]1Cc3nc4cccc(O)c4nc3[C@@](O)(C1)O2	> 120	> 120	> 120	> 120	> 50	> 50	> 120	Non-Toxic	> 120	> 120
NC(=O)c1cccc2nc3c4c(ccc3nc12)[C@H]1c2nc3c(O)cccc3nc2C[C@@H]4[C@@H]1O	> 120	4 (≈ 1.74 µg/mL)	7.5 (≈ 3.27 µg/mL)	7.5 (≈ 3.27 µg/mL)	4.7	2.4	30 (≈ 13.1 µg/mL)	Non-Toxic	> 120	> 120
O=C(O)C1(O)O[C@@H]2[C@@H](Cc3nc4c(O)cccc4nc3[C@H]2O)[C@H]1c1c[nH]c2ccccc12 (stereo not given in full)	> 120	> 120	> 120	> 120	> 50	> 50	> 120	Non-Toxic	> 120	> 120
